Laboratory results: patent publication US5776935A, “Pyrido-phtalazin diones and their use against neurological disorders associated with excitotoxicity and malfunctioning of glutamatergic neurotransmission” (Merz & Co. GmbH & Co., priority 1996, dated 1998)
Read-outs that look alike come from different tables or passages of the source.

What was measured:
NMDA receptor [1] = biological target: T1, NMDA receptor (Mus musculus, UniProt P35438); test: Maximal electroshock (MES)-induced tonic convulsions; type: in vivo; details: i.p.; for ED50: mouse, ip, 0.25 h, read-out: MES ID50
T1 construct: from tissue; host or cells: living mice (albino Swiss males for NMDA and PTZ tests, NMR females for MES)
Description: (§1) To assess NMDA receptor antagonistic properties of the tested agents by assessing anticonvulsive effects. Additionally the role of organic acid transporters in the elimination from the brain of tested agents was assessed by using an inhibitor, Probenicid, on the duration of anticonvulsive activity.
(§2) Male albino Swiss mice (19-21 g) housed 10-15 per cage were used for the NMDA lethality test (Leander et al., 1988). For pentylenetetrazol (PTZ)-induced convulsions male albino Swiss mice (25-34 g.) housed 40 per cage (58×38×20 cm) were used while in the maximal electroshock (MES) and motor impairment tests NMR female mice (18-28 g) housed 5 per cage were employed. All animals were kept with water and food ad libittum under a 12-h light-dark cycle (light on at 6 a.m.), and at a controlled temperature (20°±0.5° C.). All experiments were performed between 10 a.m. and 5 p.m. Tested agents were injected 15 min. i.p before the induction of convulsions if not stated otherwise (see below). Mrz 2/502 was dissolved in saline added with NaOH. Most other agents were dissolved in the following solution: 0.606 g Tris; 5.0 g. glucose; 0.5 g. Tween 80; and 95 ml water. The choline and tetramethylammonium salts were dissolved in distilled water.
MES (100 Hz, 0.5 sec shock duration, 50 mA shock intensity, 0.9 ms impulse duration, Ugo Basile) was applied through corneal electrodes. The presence of tonic convulsions was scored (tonic extension of hind paws with minimum angle to the body of 90°). In an additional experiment mice were injected with Probenicid (200 mg/kg) 30 min before administration of the tested agents to assess the role of organic acid transport in elimination (duration of action). The aim was to obtain ED50 s for all parameters scored using the Litchfield Wilcoxon (1949) test for quantal dose responses.

NMDA receptor [2] = biological target: T1, NMDA receptor; test: NMDA-induced convulsions / lethality test; type: in vivo; details: ip, 0.25 h, i.p., 15 min before induction, read-out: NMDA ID50
Description: as §1, §2
In the NMDA-induced convulsions test in mice, a dose-response relationship for NMDA was first performed to determine the ED97 dose which was then used for testing of antagonistic properties. After injection of the ED97 dose of NMDA the animals were placed in a small cage (20×28×14 cm) and observed for 20 min. Death preceded by clonic convulsions and by tonic seizures was the pharmacological end-point.

NMDA receptor [3] = biological target: T2, NMDA receptor (Rattus norvegicus, UniProt P35439); test: Patch clamp, inward currents to NMDA in cultured superior colliculus neurones; type: cell-based; details: for IC50 against inward currents to NMDA / IC50: NMDA 200 μM; for voltage-dependence of effect: NMDA currents; for Kb: read-out: Kb (Cheng-Prusoff relationship)
T2 construct: endogenous in cells
Description: Cells were mechanically dissociated in 0.05% DNAase / 0.3% ovomucoid (Sigma) following a 15 minute pre-incubation with 0.66% trypsin / 0.1% DNAase (Sigma). The dissociated cells were then centrifuged at 18G for 10 minutes, resuspended in minimum essential medium (Gibco) and plated at a density of 200,000 cells cm onto poly-L-lysine (Sigma)-precoated plastic petri dishes (Falcon). The cells were nourished with NaHCO3 /HEPES-buffered minimum essential medium supplemented with 5% foetal calf serum and 5% horse serum (Gibco) and incubated at 37° C. with 5%CO2 at 95% humidity. The medium was exchanged completely following inhibition of further glial mitosis with cytosine-β-D-arabinofuranoside (20 μM Sigma) after about 7 days in vitro. Thereafter the medium was exchanged partially twice weekly. […] Moreover, the relatively small neurones (soma 15-20 μm .phi.) are ideally suited to minimise problems of buffered diffusion for concentration clamp experiments.
Patch clamp recordings were made from these neurones with polished glass electrodes (4-6 m.OMEGA.) in the whole cell mode at room temperature (20°-22° C.) with the aid of an EPC-7 amplifier (List). Test substances were applied by switching channels of a custom made fast superfusion system with a common outflow (10-20 ms exchange times). The contents of the intracellular solution were as follows (mM): CsCl (120), TEACl (20), EGTA (10), MgCl2 (1), CaCl2 (0.2), glucose (10), ATP (2), cAMP (0.25); pH was adjusted to 7.3 with CsOH or HCl. The extracellular solutions had the following basic composition (mM): NaCl (140), KCl (3), CaCl2 (0.2), glucose (10), HEPES (10), sucrose (4.5), tetrodotoxin (TTX 3*10-4). For most experiments glycine (1 μM) was present in all solutions. Experiments to test the glycine-dependence of the tricyclic "pyrido-phtalazin diones" were performed in the continuous presence of increasing concentrations of glycine (1-10 μM).
This effect was mediated at the glycineB site as evidenced by the parallel shift in the concentration-response curves in the presence of increasing glycine concentrations. Thus the Kbs of Mrz 2/502 as assessed according to the Cheng-Prusoff relationship were similar in glycine 1, 3 and 10 μM (80, 124 and 118 nM respectively). […] Choline derivatives had similar potencies to the free acids in vitro (Table14b).

NMDA receptor [4] = biological target: T1, NMDA receptor; test: Pentylenetetrazol (PTZ)-induced convulsions; type: in vivo; details: ip, 0.25 h, i.p., PTZ 90 mg/kg i.p., read-out: PTZ ID50
Description: as §1, §2
Pentylenetetrazol was injected at a dose of 90 mg/kg (i.p). The presence of general tonic convulsions was then scored for 30 min as this parameter is more sensitive to NMDA receptor antagonists than clonic convulsions. The pharmacological end-point was taken as the presence of tonus in the hind limbs with stretching.

[5] = glycine 1 μM, peak currents, read-out: Peak NMDA IC50
[6] = glycine 1 μM, plateau (steady-state) currents, read-out: Plateau NMDA IC50

O=c1[nH]nc(O)c2c1cc1cc(Br)ccc1[n+]2[O-] [Mrz 2/514, 8-bromo-4-hydroxy-1-oxo-1,2-dihydropyridazino[4,5-b]-quinoline 5-oxide]
activity in the MES test (NMDA receptor [1]): effective
ED50 (NMDA receptor [1]; 15 min before induction): 20.2 mg/kg
ED50 (NMDA receptor [2]): 99 mg/kg
IC50 against inward currents to NMDA (NMDA receptor [3]): most potent
IC50 (NMDA receptor [3]; [5]): 500 nM
IC50 (NMDA receptor [3]; [6]): 200 nM
ED50 (NMDA receptor [4]): 12.8 mg/kg

O=c1[nH][nH]c(=O)c2nc3ccc(F)cc3cc12 [Mrz 2/519]
ED50 (NMDA receptor [1]; 15 min before induction): > 60 mg/kg
ED50 (NMDA receptor [2]): > 100 mg/kg
IC50 (NMDA receptor [3]; [5]): 18000 nM
IC50 (NMDA receptor [3]; [6]): 5800 nM
ED50 (NMDA receptor [4]): > 100 mg/kg

O=c1[nH][nH]c(=O)c2nc3ccc(Br)cc3cc12 [Mrz 2/503]
ED50 (NMDA receptor [1]; 15 min before induction): > 100 mg/kg
ED50 (NMDA receptor [2]): > 100 mg/kg
IC50 (NMDA receptor [3]; [5]): 1700 nM
IC50 (NMDA receptor [3]; [6]): 600 nM
ED50 (NMDA receptor [4]): > 100 mg/kg

O=c1[nH]nc(O)c2c1cc1cc(Cl)ccc1[n+]2[O-] [Mrz 2/502, 8-chloro-4-hydroxy-1-oxo-1,2-dihydropyridazino[4,5-b]-quinoline 5-oxide]
activity in the MES test (NMDA receptor [1]): effective
MES ID50 (NMDA receptor [1]; 15 min before induction, listed as 502, 15 min): 47.6 mg/kg
ED50 (NMDA receptor [2]): 26 mg/kg
IC50 against inward currents to NMDA (NMDA receptor [3]): most potent
IC50 (NMDA receptor [3]; [5]): 800 nM
IC50 (NMDA receptor [3]; [6]): 300 nM
voltage-dependence of effect (NMDA receptor [3]): not voltage-dependent
Kb (NMDA receptor [3]; glycine 1 μM): 80 nM
Kb (NMDA receptor [3]; glycine 3 μM): 124 nM
Kb (NMDA receptor [3]; glycine 10 μM): 118 nM
ED50 (NMDA receptor [4]): 8.3 mg/kg

O=c1[nH][nH]c(=O)c2nc3ccc(Cl)cc3cc12 [Mrz 2/501]
ED50 (NMDA receptor [1]; 15 min before induction): > 100 mg/kg
ED50 (NMDA receptor [2]): > 100 mg/kg
IC50 (NMDA receptor [3]; [5]): 2300 nM
IC50 (NMDA receptor [3]; [6]): 700 nM
voltage-dependence of effect (NMDA receptor [3]): not voltage-dependent
ED50 (NMDA receptor [4]): > 40 mg/kg

O=c1[nH][nH]c(=O)c2nc3cc(Cl)c(Cl)cc3cc12 [Mrz 2/515]
ED50 (NMDA receptor [1]; 15 min before induction): > 100 mg/kg
ED50 (NMDA receptor [2]): 98 mg/kg
IC50 (NMDA receptor [3]; [5]): 3700 nM
IC50 (NMDA receptor [3]; [6]): 900 nM
ED50 (NMDA receptor [4]): > 100 mg/kg

O=c1[nH]nc(O)c2c1cc1cc(F)ccc1[n+]2[O-] [Mrz 2/516, 8-fluoro-4-hydroxy-1-oxo-1,2-dihydropyridazino[4,5-b]-quinoline 5-oxide]
activity in the MES test (NMDA receptor [1]): effective
ED50 (NMDA receptor [1]; 15 min before induction): 16.6 mg/kg
ED50 (NMDA receptor [2]): 40 mg/kg
IC50 (NMDA receptor [3]; [5]): 6300 nM
IC50 (NMDA receptor [3]; [6]): 1600 nM
ED50 (NMDA receptor [4]): 7.9 mg/kg
